Assay results as given in article PMC5510229, “BCAT1 controls metabolic reprogramming in activated human macrophages and is associated with inflammatory diseases” (Nature Communications, 2017).

Assays:
[1] = system: mouse bone marrow derived macrophages (BMDMs); experiment: BMDM cell number (CyQuant); format: cell-based, C57BL/6 mouse; details: treatment for 24 h
Excerpt: Figure 6 ERG240 treatment results in reduced macrophage infiltration in CIA and crescentic glomerulonephritis. (a) Inhibition of murine BMDM migration in vitro in the presence of different concentrations of ERG240 by transwell migration assay (left panel, results are presented as the average of four experiments). The drug had no effect on cell viability (right panel, results are presented as the average of three experiments). (b) IHC analysis of CIA joints for expression of F4/80. Representative images show F4/80+ cells (indicated with an arrow). F4/80+ cell quantification is shown on the right panel. (c) Representative images showing glomerular ED1 (rat CD68)-positive cells in ERG240 treated animals following NTN. Percentage of glomerular ED1-positive cell quantification is shown on the right panel. Error bars are s.e.m. […]
The migration of BMDMs was assessed using a modified Bo yden chamber methodology. […]
To determine the effect of ERG240 on the total number of BMDMs, cell s were plated onto a 96-well plate at a density of 5,000 cells per well in complete media and allowed to adhere overnight. The cells were then exposed to various drug concentrations overnight and the cell population was quantified with CyQuant Cell Proliferation kit (Life Technologies) using triplicates, in two independent experiments. For hMDMs, cell viability was determined using the alamarBlue® Assa y (Invitrogen). […]

[2] = system: collagen-induced arthritis (CIA); experiment: Collagen-induced arthritis (CIA) in mice; format: in vivo, DBA/1 mice
Excerpt: Figure 5 Orally administrated ERG240 reduced the severity of crescentic glomerulonephritis in rats and CIA in mice. (a) Glomerular crescents, serum creatinine, and proteinuria levels measured in vehicle and ERG240 treated rats at day 10 following induction of nephrotoxic nephritis. At least n=4 rats were used in each group. (b) Col1a1 immunofluorescence (IF) quantification (left panel), representative IF and Sirius red staining images (middle panel) and Col1a1 qRT-PCR (normalized to Hprt) 28 days following NTS injection. Original magnification, × 20, at least n=4 animals were used in each group. (c) Clinical progression of CIA measured by the Mean Arthritis Index in vehicle and ERG240-treated animals in both studies (prophylactic and therapeutic, upper panel; at least n=6 animals per group). Histological analysis of joints from representative whole paws scored for inflammation, pannus formation, cartilage damage and bone resorption (lower panel). Error bars are s.e.m. Either Mann–Whitney or Student’s t-test were used for significance. *** P<0.001, ** P<0.01, * P<0.05. Scale bars, 50 μm.
DBA/1 mice (6–8 weeks old from Harlan Sprague Dawley Inc.) were injected s.c. with 100 μg of bovine type II collagen emulsified in complete Freund’s adjuvant (Sigma). At day 21 following primary immunization, the mice were given a booster injection of 100 μg of bovine type II collagen emulsified in incomplete Freund’s adjuvant. The prophylactic arm of the study involved water-treated (vehicle control, n=6) and ERG240-treated (720 mg kg^−1, o.p., qdx5, 3 weeks, n=10) animals, while the therapeutic arm of the study involved water-treated (vehicle control, n=10) and ERG240-treated (1,000 mg kg^−1, o.p., qdx5, 4 weeks, n=10) animals. Parafin-embedded paws were sectioned at ∼5 μm. One slide from each paw was stained with hematoxylin and eosin (H&E) and served as a reference, while four additional slides were stained using antibodies against F4/80 (AbD Serotec). The expression of the above markers in the joints of the preserved CIA tissues was scored according to the following scale: 0=no staining; 1=minimal; 2=mild; 3=moderate; 4=marked; and 5=diffuse and severe staining (see Supplementary Methods for detailed histological evaluation of CIA tissues). Serum levels of TNF and RANKL were analysed using relevant ELISA kits from Biolegend (TNF-α) and Abcam (RANKL) according to the manufacturers’ instructions. Details for determining the presence of antibodies against type II collagen are provided in Supplementary Methods.
Clinical and histological evaluation methods in CIA
Development of arthritis was assessed ever y other da y and scored on a scale of 0-4 as follows: 0=no oedema or swelling, 1=slight oedema and er ythema restricted to the foot or ankle, 2=moderate to severe oedema and er ythema restricted to the foot or ankle, 3 =oedem a and erythema of the entire paw, and 4=maximum inflamed limb i nvolving multiple joints.
The maximal arthritic score or arthritic index (AI) per animal was 16 (cumulative for 4 limbs).Paw thickness was measured before termination of the experiment . […]
Histological evaluation of CIA t issues.
Dosing of the animals in the proph ylactic groups started on the da y of the booster injection (day 21), while dosing of the animals in the therapeutic groups started after arthritis was established (da y 26). Animals were scored for the presence of arthritis ever y other da y and weighed once a week. At the end of the study, sera were obtained b y cardiac puncture and paws were excised for histological examination (HistoTox Labs Inc). From each therap eutic group, three front and four hind paws were selected for histological an al ys is . Paws were fixed in 4% formalin and decalcified in formic acid. Parafin sections (8 µm) were stained with toluidine blue (T-blue). The sections were evaluated blindly and scored for inflammation, pannus infiltration, cartilage damage, and bone erosion according to scale shown here. […]

[3] = excised paws after completion of CIA

SMILES: CC(=O)C(C)CCC(=O)O (stereo not shown) [ERG240]
- BMDM cell numbers [1]: did not affect cell numbers
- serum Tnf levels ([2]; CIA mice, ELISA): diminished levels
- serum Tnfsf11 (RANKL) levels ([2]; CIA mice, ELISA): diminished levels
- decrease of bone erosion (paw histology) [2, 3]: 86%
- decrease of cartilage degradation (paw histology) [2, 3]: 74%
- decrease of inflammation (paw histology) [2, 3]: 53%
- decrease of pannus formation (paw histology) [2, 3]: 86%
- F4/80+ macrophages in the joints ([2]; immunohistochemistry of excised paws): significant reduction
- joint oedema ([2]; only in the fore paws, therapeutic study): significant decrease
- severity of CIA (Mean Arthritis Index) ([2]; oral, prophylactic 720 mg kg^−1, therapeutic 1000 mg kg^−1): alleviates the severity of CIA
